Results from patent US20240209028A1, “CNP COMPOUNDS” (priority 2022, published 2024).
≈ marks a conversion by molar mass, not a printed value. Read-outs that look alike come from different tables or passages of the source. Starred links: 1 amine or outer side, 2 acyl side, 3 side chain; linkers in the order of their positions; H or OH if unused. Positions of bridges follow the written chain, without caps; N, C: chain ends. Residues, ends and D or L forms follow the SMILES beside them. *: point of attachment. C18 diacid = O=C(O)CCCCCCCCCCCCCCCCC(=O)*; γGlu = O=C(O)[C@H](CCC(=O)[*:2])N[*:1]; AEEA = NCCOCCOCC(=O)O

Key:
[1] = target: T1, human natriuretic peptide receptor 2 (hNPR2) (Homo sapiens, UniProt P20594); experiment: In vitro hNPR2 activity assay (cGMP GloSensor reporter, HEK293); type: cell-based; settings: for hNPR2 0% HSA. [EC50% rel CNP]: potency relative to CNP22 (0065)
T1 construct: expressed in transfected cells; host or cells: HEK293 (ATCC CRL-1573), clone 35, co-transfected with pGloSensor-42F
T1 sequence (P20594 23-1047): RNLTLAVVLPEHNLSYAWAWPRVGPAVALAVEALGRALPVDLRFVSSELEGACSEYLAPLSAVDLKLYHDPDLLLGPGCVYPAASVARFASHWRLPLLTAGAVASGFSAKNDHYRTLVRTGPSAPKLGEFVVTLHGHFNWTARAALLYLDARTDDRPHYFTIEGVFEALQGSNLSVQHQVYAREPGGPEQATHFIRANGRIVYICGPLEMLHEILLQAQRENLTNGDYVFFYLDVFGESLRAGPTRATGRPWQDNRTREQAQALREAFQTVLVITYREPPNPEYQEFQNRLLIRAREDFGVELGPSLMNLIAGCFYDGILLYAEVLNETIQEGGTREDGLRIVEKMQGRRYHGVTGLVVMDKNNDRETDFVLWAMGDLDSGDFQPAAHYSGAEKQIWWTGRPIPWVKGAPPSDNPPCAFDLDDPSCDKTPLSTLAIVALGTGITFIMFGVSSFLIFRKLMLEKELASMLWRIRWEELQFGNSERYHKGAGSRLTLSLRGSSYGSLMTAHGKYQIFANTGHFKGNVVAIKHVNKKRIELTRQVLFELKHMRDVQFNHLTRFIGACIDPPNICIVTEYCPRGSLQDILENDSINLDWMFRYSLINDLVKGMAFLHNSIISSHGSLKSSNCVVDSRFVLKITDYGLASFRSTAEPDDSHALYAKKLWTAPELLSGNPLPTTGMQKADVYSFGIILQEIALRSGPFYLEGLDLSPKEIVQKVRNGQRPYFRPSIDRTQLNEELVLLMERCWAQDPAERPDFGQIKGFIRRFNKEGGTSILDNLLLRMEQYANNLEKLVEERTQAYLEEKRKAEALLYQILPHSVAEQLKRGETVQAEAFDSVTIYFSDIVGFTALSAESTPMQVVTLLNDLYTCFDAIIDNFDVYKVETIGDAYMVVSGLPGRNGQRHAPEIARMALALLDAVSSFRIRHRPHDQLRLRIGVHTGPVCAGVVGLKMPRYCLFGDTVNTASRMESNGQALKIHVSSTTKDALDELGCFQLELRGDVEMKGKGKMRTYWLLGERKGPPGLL
In short: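 Potency is the EC50 from a four-parameter logistic fit, also expressed relative to the in-plate CNP22 control (×100), with at least two replicates. Compounds (ten concentrations, […], HSA-free diluent with 1% OVA, 0.01% Tween20) were incubated 30 min at 37 °C on HEK293 cells co-expressing hNPR2 and a GloSensor cGMP luciferase. Luminescence detected with Bright-Glo.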

[2] = Solubility of CNP compounds at pH 4.0 and pH 6.5; type: physicochemical
In short: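 Freeze-dried peptide was brought to a nominal ≥4000-5000 nmol/mL in 5 mM sodium acetate, 250 mM glycerol (pH 4.0) or in 8 mM sodium phosphate, 23 mg/mL glycerol (pH 6.5 via NaOH titration). Samples were equilibrated at room temperature overnight if undissolved, and supernatant concentration was measured by CAD.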

[3] = 8 mM sodium phosphate, 23 mg/mL glycerol, pH 6.5, room temperature, read-out: Solubility at pH 6.5

| SMILES | EC50 ([1]; 0% HSA, HEK293-hNPR2/GloSensor cells) [nM] | hNPR2 0% HSA. [EC50% rel CNP] [1] [%] | solubility ([2]; pH 4) [mM] | solubility [2, 3] [mM] |
| --- | --- | --- | --- | --- |
| CC[C@H](C)[C@@H]1NC(=O)[C@H](CCCNC(=N)N)NC(=O)[C@H](CCC(=O)O)NC(=O)[C@H](CC(C)C)NC(=O)[C@@H]2CCCN2C(=O)[C@H](CC(C)C)NC(=O)CNC(=O)[C@H](Cc2ccccc2)NC(=O)[C@@H](NC(=O)CNC(=O)[C@H](CCC(N)=O)NC(=O)[C@H](CO)NC(=O)CNC(=O)CNC(=O)[C@H](CCCCN)NC(=O)[C@H](CCCCN)NC(=O)[C@H](CCC(N)=O)NC(=O)[C@H](C)NC(=O)CNC(=O)[C@H](CCCCN)NC(=O)[C@H](Cc2ccc(O)cc2)NC(=O)COCCOCCNC(=O)COCCOCCNC(=O)COCCOCCNC(=O)COCCOCCNC(=O)CC[C@H](NC(=O)CC[C@H](NC(=O)CCCCCCCCCCCCCCCCC(=O)O)C(=O)O)C(=O)O)CSSC[C@@H](C(=O)O)NC(=O)CNC(=O)[C@H](CC(C)C)NC(=O)CNC(=O)[C@H](CO)NC(=O)[C@H](CC(C)C)NC(=O)[C@H](CO)NC(=O)CNC1=O [compound 1489] ({C18 diacid-γGlu-γGlu-AEEA-AEEA-AEEA-AEEA}-YKGAQKKGGSQGCFGLPLERIGSLSGLGC-OH; disulfide 13-29) | 0.22 | 3.7 | 5.93 (≈ 24 mg/mL) | – |
| CC[C@H](C)[C@@H]1NC(=O)[C@H](CCCNC(=N)N)NC(=O)[C@H](CC(=O)O)NC(=O)[C@H](CC(C)C)NC(=O)[C@@H]2CCCN2C(=O)[C@H](CC(C)C)NC(=O)CNC(=O)[C@H](Cc2ccccc2)NC(=O)[C@@H](NC(=O)CNC(=O)[C@H](CCC(N)=O)NC(=O)[C@H](CO)NC(=O)[C@H](CO)NC(=O)CNC(=O)[C@H](CCCCN)NC(=O)[C@H](CCCCN)NC(=O)[C@H](CCC(N)=O)NC(=O)[C@H](C)NC(=O)CNC(=O)[C@@H]2CCCN2C(=O)[C@H](C)NC(=O)[C@H](CCC(N)=O)NC(=O)CNC(=O)COCCOCCNC(=O)COCCOCCNC(=O)CC[C@H](NC(=O)CCCCCCCCCCCCCCCCC(=O)O)C(=O)O)CSSC[C@@H](C(=O)O)NC(=O)CNC(=O)[C@H](CC(C)C)NC(=O)CNC(=O)[C@H](CO)NC(=O)[C@H](CC(C)C)NC(=O)[C@H](CO)NC(=O)CNC1=O [compound 9384] ({C18 diacid-γGlu-AEEA-AEEA}-GQAPGAQKKGSSQGCFGLPLDRIGSLSGLGC-OH; disulfide 15-31; C-terminus assumed) | – | 53.7 | – | 7.56 (≈ 28 mg/mL) |
| CC[C@H](C)[C@@H]1NC(=O)[C@H](CCCNC(=N)N)NC(=O)[C@H](CC(=O)O)NC(=O)[C@H](CC(C)C)NC(=O)[C@@H]2CCCN2C(=O)[C@H](CC(C)C)NC(=O)CNC(=O)[C@H](Cc2ccccc2)NC(=O)[C@@H](NC(=O)CNC(=O)[C@H](CCC(N)=O)NC(=O)[C@H](CO)NC(=O)[C@H](CC(C)C)NC(=O)CNC(=O)[C@H](CCCCN)NC(=O)[C@H](CCCCN)NC(=O)[C@H](CCC(N)=O)NC(=O)[C@H](C)NC(=O)CNC(=O)[C@H](CCCCN)NC(=O)[C@H](Cc2ccc(O)cc2)NC(=O)[C@H](CCCCN)NC(=O)[C@H](CCCNC(=N)N)NC(=O)[C@H](C)NC(=O)COCCOCCNC(=O)COCCOCCNC(=O)COCCOCCNC(=O)COCCOCCNC(=O)CC[C@H](NC(=O)CC[C@H](NC(=O)CC[C@H](NC(=O)CC[C@H](NC(=O)CC[C@H](NC(=O)CCCCCCCCCCCCCCCCC(=O)O)C(=O)O)C(=O)O)C(=O)O)C(=O)O)C(=O)O)CSSC[C@@H](C(=O)O)NC(=O)CNC(=O)[C@H](CC(C)C)NC(=O)CNC(=O)[C@H](CO)NC(=O)[C@H](CC(C)C)NC(=O)[C@H](CO)NC(=O)CNC1=O [compound 9407] ({C18 diacid-γGlu-γGlu-γGlu-γGlu-γGlu-AEEA-AEEA-AEEA-AEEA}-ARKYKGAQKKGLSQGCFGLPLDRIGSLSGLGC-OH; disulfide 16-32) | – | 38.6 | – | 6.69 (≈ 32.3 mg/mL) |
